The record followed here is PubChem BioAssay (NCI).

SMILES strings stand for the structures.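 Five concentrations, 48 hours, 96-well plates. GI50 is the concentration that inhibits growth by half. TGI denotes the concentration required for complete inhibition of growth.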

Among the test systems are A549 NSCLC; COLO 205 colon; HOP-92 NSCLC; HT29 colon; KM12 colon; MOLT-4 leukemia; NCI/ADR-RES ovarian; OVCAR-5 ovarian; U251 CNS; UACC-257 melanoma.
Common to all, as to assay: NCI tumour cell line growth inhibition, 48 h

Take `COc1cc2c(/C=C3/C(=O)Nc4cccc(Cl)c43)c(Cl)n(Cc3ccccc3)c2cc1C`: the GI50 is 4.76 µM in the assay on A549 NSCLC; 2.94 µM in the assay on COLO 205 colon; 44.9 µM in the assay on HOP-92 NSCLC; 4.99 µM with HT29 colon; 2.46 µM in the assay on KM12 colon; 3.7 µM in the assay with MOLT-4 leukemia. Moreover, the GI50 with NCI/ADR-RES ovarian was 2.76 µM; in the assay on OVCAR-5 ovarian, 24.4 µM; in the assay with U251 CNS, 2.46 µM; with UACC-257 melanoma, 10.4 µM. In addition, the TGI in the assay on A549 NSCLC is > 100 µM; with COLO 205 colon it was 21.8 µM; in the assay with HOP-92 NSCLC it was > 100 µM; with HT29 colon, > 100 µM; with KM12 colon, 17.9 µM; in the assay on MOLT-4 leukemia, > 100 µM. Moreover, the TGI in the assay on NCI/ADR-RES ovarian was 12 µM; in the assay on OVCAR-5 ovarian, > 71.4 µM; with U251 CNS it was 20.6 µM; in the assay with UACC-257 melanoma, > 78.8 µM.

For the compound `COc1cc(Cn2c(-c3ccccc3)cc3c2-c2oncc2CC3)cc(OC)c1OC`, the GI50 with A549 NSCLC was 1.15 µM; with COLO 205 colon it was 0.696 µM; in the assay on HOP-92 NSCLC, 12.7 µM; in the assay with HT29 colon, 0.446 µM; in the assay on KM12 colon, 0.585 µM; in the assay with MOLT-4 leukemia, 0.976 µM. Further, the GI50 is 0.328 µM in the assay with NCI/ADR-RES ovarian, 6.46 µM in the assay with OVCAR-5 ovarian, 0.947 µM with U251 CNS and 20.2 µM with UACC-257 melanoma. In addition, the TGI in the assay on A549 NSCLC is > 100 µM; with COLO 205 colon, 3.13 µM; in the assay on HOP-92 NSCLC, > 100 µM; with HT29 colon, 47.2 µM; in the assay on KM12 colon, 22.8 µM; with MOLT-4 leukemia, > 100 µM. Besides, the TGI is > 100 µM in the assay on NCI/ADR-RES ovarian, > 100 µM with OVCAR-5 ovarian, 35.4 µM in the assay with U251 CNS and > 100 µM in the assay with UACC-257 melanoma.

`COc1ccc(-c2cc3c(nn2)-c2ccccc2C3=O)cc1`: the GI50 in the assay on A549 NSCLC was > 100 µM; with COLO 205 colon it was > 100 µM; with HOP-92 NSCLC, > 100 µM; with HT29 colon it was > 100 µM; with KM12 colon it was 47.7 µM; in the assay with MOLT-4 leukemia it was 32.8 µM. For the same compound, the GI50 with NCI/ADR-RES ovarian, in the assay on OVCAR-5 ovarian, in the assay with U251 CNS and in the assay with UACC-257 melanoma was > 100 µM in each case. Also, the TGI with A549 NSCLC, in the assay with COLO 205 colon, in the assay on HOP-92 NSCLC, in the assay with HT29 colon, with KM12 colon and in the assay on MOLT-4 leukemia was > 100 µM in each case. For the same compound, the TGI in the assay with NCI/ADR-RES ovarian, in the assay on OVCAR-5 ovarian, in the assay on U251 CNS and with UACC-257 melanoma was > 100 µM throughout.

Turning to `C[C@]12CC[C@@H]3c4ccc(O)cc4CC[C@H]3[C@@H]1CC[C@@H]2NS(=O)(=O)c1ccc(C(F)(F)F)cc1`, the GI50 with A549 NSCLC was 2.05 µM; in the assay on COLO 205 colon, 1.83 µM; in the assay with HOP-92 NSCLC, 1.51 µM; with HT29 colon it was 2.01 µM; with KM12 colon it was 1.87 µM; in the assay on MOLT-4 leukemia, 2.61 µM. In addition, the GI50 in the assay on NCI/ADR-RES ovarian is 2.17 µM; in the assay on OVCAR-5 ovarian, 1.7 µM; with U251 CNS it was 1.75 µM; with UACC-257 melanoma, 2.59 µM. Besides, the TGI was found to be 4.98 µM with A549 NSCLC; 3.38 µM with COLO 205 colon; 3.28 µM in the assay with HOP-92 NSCLC; 3.94 µM in the assay with HT29 colon; 3.57 µM with KM12 colon; 12.7 µM with MOLT-4 leukemia. The TGI turned out to be 5.7 µM with NCI/ADR-RES ovarian, 3.26 µM in the assay with OVCAR-5 ovarian, 3.3 µM with U251 CNS and 7.57 µM in the assay with UACC-257 melanoma.

On to `O=[N+]([O-])c1ccc2nnnn2c1`, for which the TGI in the assay on A549 NSCLC, in the assay on COLO 205 colon, in the assay on HOP-92 NSCLC, with HT29 colon, in the assay on KM12 colon and in the assay on MOLT-4 leukemia was > 100 µM in each case. Moreover, the TGI is > 100 µM in the assay with NCI/ADR-RES ovarian, > 100 µM with OVCAR-5 ovarian, 84.9 µM in the assay on U251 CNS and > 100 µM with UACC-257 melanoma.

Turning to `CC[C@H](C)[C@H](NC(=O)[C@H]1CCCCN1C)C(=O)N(C)[C@H](CCc1nc(C(=O)N[C@@H](Cc2ccccc2)C[C@H](C)C(=O)OC)cs1)C(C)C`, the GI50 with A549 NSCLC is 1.1 µM; in the assay on COLO 205 colon, 0.167 µM; in the assay on HOP-92 NSCLC, 0.292 µM; in the assay with HT29 colon, 0.202 µM; in the assay with KM12 colon it was 0.261 µM; in the assay with MOLT-4 leukemia it was 0.727 µM. In addition, the GI50 in the assay with NCI/ADR-RES ovarian was 1.38 µM; in the assay with OVCAR-5 ovarian, 1.12 µM; in the assay with U251 CNS, 0.345 µM; with UACC-257 melanoma, 4.43 µM. Besides, the TGI with A549 NSCLC was > 25 µM; with COLO 205 colon, 0.916 µM; in the assay with HOP-92 NSCLC, 8.33 µM; in the assay with HT29 colon it was 3.06 µM; with KM12 colon, > 25 µM; with MOLT-4 leukemia, > 25 µM. For the same compound, the TGI with NCI/ADR-RES ovarian, in the assay on OVCAR-5 ovarian, with U251 CNS and with UACC-257 melanoma was > 25 µM each time.

As for `N#C/C(C(=S)Nc1ccccc1)=C1/NN=C2c3ccccc3C(=O)NN21`, the GI50 in the assay with A549 NSCLC was 34 µM; in the assay with COLO 205 colon it was 24.9 µM; in the assay with HOP-92 NSCLC, 29.2 µM; in the assay with HT29 colon, 29.2 µM; in the assay on KM12 colon it was 16.1 µM; in the assay on MOLT-4 leukemia, 32.1 µM. Also, the GI50 with NCI/ADR-RES ovarian is 20.6 µM; in the assay with OVCAR-5 ovarian it was 56.1 µM; in the assay with U251 CNS, 32.1 µM; in the assay on UACC-257 melanoma, 39 µM. Further, the TGI with A549 NSCLC is > 100 µM; with COLO 205 colon, > 100 µM; with HOP-92 NSCLC it was 88.7 µM; with HT29 colon, > 100 µM; in the assay with KM12 colon, 58.4 µM; in the assay with MOLT-4 leukemia it was > 100 µM. Moreover, the TGI with NCI/ADR-RES ovarian was 58.8 µM; in the assay with OVCAR-5 ovarian it was > 100 µM; in the assay with U251 CNS it was > 100 µM; in the assay on UACC-257 melanoma it was > 100 µM.
